Experimental data: the supplement of paper PMC11061612

Columns and labels:
[1] = tested on: U-698-M; assay: combination Emax (second highest fraction inhibited in the dose matrix, 72 h); higher = more inhibition; conditions: B-Cell Non-Hodgkin's Lymphoma
In short: (§1)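 Cell lines grown in DMEM/F12 or RPMI with 10% FBS were plated in 1536-well plates and held 24 hours at 37°C, 5% CO2 before 72 hours of exposure to two-drug dose matrices, with DMSO typically at 0.2%. CellTiter-Glo 2.0 luminescence gave viability, which was converted to inhibition. Vehicle wells were set to 0 and blank wells to 1. Combination Emax is the second-highest inhibition in the matrix, and Bliss excess is the observed combination effect minus the expected EA + EB − EA·EB, where EA and EB are the single-agent effects.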

[2] = tested on: U-698-M; assay: Bliss excess, mean over the matrix (fraction); higher = more synergy; conditions: U-[…], B-Cell Non-Hodgkin's Lymphoma
In short: as §1

[3] = first compound max 10 µM, partner max 1 µM
[4] = first compound max 10 µM, partner max 0.3 µM, 7x7
[5] = first compound max 10 µM, partner max 1 µM, 7x7
[6] = first compound max 10 µM, partner max 10 µM, 7x7
[7] = first compound max 10 µM, partner max 5 µM, 7x7
[8] = first compound max 1 µM, partner max 10 µM, 7x7
[9] = first compound max 1 µM, partner max 3 µM, 7x7
[10] = first compound max 1 µM, partner max 1 µM
[11] = first compound max 1 µM, partner max 1 µM, 7x7
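Throughout, for Bliss excess, mean over the matrix: after 72 h of two-drug dosing.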

Cn1cnc2c(F)c(Nc3ccc(Br)cc3Cl)c(C(=O)NOCCO)cc21 [Selumetinib] + C=CCn1c(=O)c2cnc(Nc3ccc(N4CCN(C)CC4)cc3)nc2n1-c1cccc(C(C)(C)O)n1 [AZD1775]
combination Emax [1, 3]: 0.892
Bliss excess [2, 3]: -0.0472

Cn1cnc2c(F)c(Nc3ccc(Br)cc3Cl)c(C(=O)NOCCO)cc21 [Selumetinib] + CC(C)n1c(=O)n(C)c2cnc3cc(F)c(-c4ccc(OCCCN5CCCCC5)nc4)cc3c21 [AZD1390]
combination Emax [1, 4]: 0.109
Bliss excess [2, 4]: -0.0149

Cn1cnc2c(F)c(Nc3ccc(Br)cc3Cl)c(C(=O)NOCCO)cc21 [Selumetinib] + CCN(CCO)CCCOc1ccc2c(Nc3cc(CC(=O)Nc4cccc(F)c4)[nH]n3)ncnc2c1 [AZD2811]
combination Emax [1, 5]: 0.253
Bliss excess [2, 5]: 0.0099

Cn1cnc2c(F)c(Nc3ccc(Br)cc3Cl)c(C(=O)NOCCO)cc21 [Selumetinib] + C[C@@H]1COCCN1C2=NC(=NC(=C2)C3(CC3)[S@](=N)(=O)C)C4=C5C=CNC5=NC=C4 [AZD6738]
combination Emax [1, 6]: 0.766
Bliss excess [2, 6]: -0.0501

Cc1nc(-c2cn3c(n2)-c2ccc(-c4cnn(C(C)(C)C(N)=O)c4)cc2OCC3)n(C(C)C)n1 [Taselisib] + O=C(Nc1ccc2[nH]nc(-c3ccncc3)c2c1)[C@@H]1CCN(CC(=O)N2CCN(c3ccc(-c4ncccn4)cc3)CC2)C1 [SCH772984]
combination Emax [1, 7]: 0.606
Bliss excess [2, 7]: -0.0189

CC(=O)Nc1cccc(-n2c(=O)n(C3CC3)c(=O)c3c(Nc4ccc(I)cc4F)n(C)c(=O)c(C)c32)c1 [Trametinib] + Cc1nc(-c2cn3c(n2)-c2ccc(-c4cnn(C(C)(C)C(N)=O)c4)cc2OCC3)n(C(C)C)n1 [Taselisib]
combination Emax [1, 8]: 0.416
Bliss excess [2, 8]: -0.0211

CC1(C)CCC(CN2CCN(c3ccc(C(=O)NS(=O)(=O)c4ccc(NCC5CCOCC5)c([N+](=O)[O-])c4)c(Oc4cnc5[nH]ccc5c4)c3)CC2)=C(c2ccc(Cl)cc2)C1 [Venetoclax] + C1CN(CCC1(C(=O)N[C@@H](CCO)C2=CC=C(C=C2)Cl)N)C3=NC=NC4=C3C=CN4 [Capivasertib]
combination Emax [1, 9]: 0.756
Bliss excess [2, 9]: -0.0112

CC1(C)CCC(CN2CCN(c3ccc(C(=O)NS(=O)(=O)c4ccc(NCC5CCOCC5)c([N+](=O)[O-])c4)c(Oc4cnc5[nH]ccc5c4)c3)CC2)=C(c2ccc(Cl)cc2)C1 [Venetoclax] + C=CCn1c(=O)c2cnc(Nc3ccc(N4CCN(C)CC4)cc3)nc2n1-c1cccc(C(C)(C)O)n1 [AZD1775]
combination Emax [1, 10]: 0.978
Bliss excess [2, 10]: 0.109

CC1(C)CCC(CN2CCN(c3ccc(C(=O)NS(=O)(=O)c4ccc(NCC5CCOCC5)c([N+](=O)[O-])c4)c(Oc4cnc5[nH]ccc5c4)c3)CC2)=C(c2ccc(Cl)cc2)C1 [Venetoclax] + CCN(CCO)CCCOc1ccc2c(Nc3cc(CC(=O)Nc4cccc(F)c4)[nH]n3)ncnc2c1 [AZD2811]
combination Emax [1, 11]: 0.6
Bliss excess [2, 11]: -0.0213

CC1(C)CCC(CN2CCN(c3ccc(C(=O)NS(=O)(=O)c4ccc(NCC5CCOCC5)c([N+](=O)[O-])c4)c(Oc4cnc5[nH]ccc5c4)c3)CC2)=C(c2ccc(Cl)cc2)C1 [Venetoclax] + CN(C)CCCOc1ccc(-c2ccc3ncc4c(c3c2)n(C2CCOCC2)c(=O)n4C)cn1 [AZD0156]
combination Emax [1, 11]: 0.72
Bliss excess [2, 11]: 0.0133

CC1(C)CCC(CN2CCN(c3ccc(C(=O)NS(=O)(=O)c4ccc(NCC5CCOCC5)c([N+](=O)[O-])c4)c(Oc4cnc5[nH]ccc5c4)c3)CC2)=C(c2ccc(Cl)cc2)C1 [Venetoclax] + COc1cc(Nc2ncc3c(n2)-c2ccc(Cl)cc2C(c2c(F)cccc2OC)=NC3)ccc1C(=O)O [Alisertib]
combination Emax [1, 8]: 0.592
Bliss excess [2, 8]: 0.0827

CC1(C)CCC(CN2CCN(c3ccc(C(=O)NS(=O)(=O)c4ccc(NCC5CCOCC5)c([N+](=O)[O-])c4)c(Oc4cnc5[nH]ccc5c4)c3)CC2)=C(c2ccc(Cl)cc2)C1 [Venetoclax] + CS(=O)(=O)CCNCc1ccc(-c2ccc3ncnc(Nc4ccc(OCc5cccc(F)c5)c(Cl)c4)c3c2)o1 [Lapatinib]
combination Emax [1, 8]: 0.503
Bliss excess [2, 8]: -0.0151

CC1(C)CCC(CN2CCN(c3ccc(C(=O)NS(=O)(=O)c4ccc(NCC5CCOCC5)c([N+](=O)[O-])c4)c(Oc4cnc5[nH]ccc5c4)c3)CC2)=C(c2ccc(Cl)cc2)C1 [Venetoclax] + C[C@@H]1COCCN1C2=NC(=NC(=C2)C3(CC3)[S@](=N)(=O)C)C4=C5C=CNC5=NC=C4 [AZD6738]
combination Emax [1, 8]: 0.86
Bliss excess [2, 8]: -0.0392

CC1(C)CCC(CN2CCN(c3ccc(C(=O)NS(=O)(=O)c4ccc(NCC5CCOCC5)c([N+](=O)[O-])c4)c(Oc4cnc5[nH]ccc5c4)c3)CC2)=C(c2ccc(Cl)cc2)C1 [Venetoclax] + C[C@@H](Nc1cc(F)cc(F)c1)c1cc(C(=O)N(C)C)cc2c(=O)cc(N3CCOCC3)oc12 [AZD8186]
combination Emax [1, 9]: 0.564
Bliss excess [2, 9]: -0.0045

CC1(C)CCC(CN2CCN(c3ccc(C(=O)NS(=O)(=O)c4ccc(NCC5CCOCC5)c([N+](=O)[O-])c4)c(Oc4cnc5[nH]ccc5c4)c3)CC2)=C(c2ccc(Cl)cc2)C1 [Venetoclax] + Cc1cc2ncnn2cc1Nc1ncc2c(n1)n(C1CCOCC1)c(=O)n2C [AZD7648]
combination Emax [1, 8]: 0.57
Bliss excess [2, 8]: 0.041

CC1(C)CCC(CN2CCN(c3ccc(C(=O)NS(=O)(=O)c4ccc(NCC5CCOCC5)c([N+](=O)[O-])c4)c(Oc4cnc5[nH]ccc5c4)c3)CC2)=C(c2ccc(Cl)cc2)C1 [Venetoclax] + Cn1cnc2c(F)c(Nc3ccc(Br)cc3Cl)c(C(=O)NOCCO)cc21 [Selumetinib]
combination Emax [1, 9]: 0.408
Bliss excess [2, 9]: -0.0473
